# Reference: patent US9155752B2, “Liver function-improving agent” (UENO FINE CHEMICALS INDUSTRY, LTD., priority 2012, dated 2015)
# Tested on: NASH mice
# Assay: Oil Red staining of liver, fat accumulation area % (Test Example 3)
# Assay type: in vivo
# Conditions: for Fat accumulation area %, Significant difference: Student-t, 5% level
# Source text: A solid diet CE-2 (lipid 4.6% by weight, manufactured by CLEA Japan, Inc.) was used as a normal diet. A solid diet, High Fat Diet 32 (lipid 32.0% by weight, sucrose 6.75% by weight, manufactured by CLEA Japan, Inc.), was used as a sucrose-containing high fat diet. As a maltitol-containing high-fat diet, a special diet (lipid 32.0% by weight, maltitol 6.08% by weight; manufactured by CLEA Japan, Inc.) obtained by replacing the total amount (6.75% by weight) of sucrose in a solid diet, High Fat Diet 32, with powdered maltitol (Whole Crystalline Maltitol Ueno 60M (purity of maltitol: 90%), manufactured by Ueno Fine Chemicals Industry Ltd.) was used. Sodium hypochlorite (PURELOX-S, manufactured by OYALOX Co., Ltd.) was added to pure water prepared by Elix-UV pure water producing apparatus, to a final concentration of 0.00009%, so that pure water for use in the test was obtained. An aqueous maltitol solution was prepared by dissolving powdered maltitol (Whole Crystalline Maltitol Ueno 60M (purity of maltitol: 90%), manufactured by Ueno Fine Chemicals Industry Ltd.) in pure water to a concentration of 1.8% (weight/volume). The purity of maltitol in the aqueous maltitol solution was 1.62%. Twenty-one female SPF mice (C57BL/6J, produced by CLEA Japan, Inc.) on day 14 of pregnancy were purchased and acclimation was performed. All animals were allowed to make a natural birth and a born male was used to produce a model. In addition, the weaning was at 4 weeks after birth. Streptozotocin (Sigma-Aldrich Japan K.K.) was adjusted to a concentration of 10 mg/mL with a physiological saline solution (manufactured by Otsuka Pharmaceutical Factory, Inc.) and the solution was subcutaneously administered once to the back of 2-day-old male mice at a dose of 20 μL/mouse (200 μg/mouse). Afterwards, the mother animal took care of the baby until weaning. The weaning was on day 28±2 after birth. After the weaning, a normal diet was supplied ad libitum to animals receiving no streptozotocin (normal mice (group S1 and group 1)), and a sucrose-containing high fat diet was supplied ad libitum to animals receiving streptozotocin (NASH mice (group S2, group 2, group 3, and group 4). A normal diet was supplied ad libitum to normal mice (group 1). With respect to NASH mice, a sucrose-containing high fat diet was supplied ad libitum to the sucrose group (group 2), and a maltitol-containing high fat diet was supplied ad libitum to the maltitol-low dose group (group 3) and the maltitol-high dose group (group 4). An aqueous maltitol solution was supplied ad libitum only to the maltitol-high dose group (group 4) of 5 to 8 weeks of age, and pure water was supplied ad libitum to the groups other than group 4 of 5 to 8 weeks of age. Six male animals per group were assigned to groups S1 and S2, reared up to 5 weeks of age, and then necropsied. Eight male animals per group were assigned to groups 1, 2, 3 and 4, reared up to 8 weeks of age, and then necropsied. At scheduled necropsy of the animals of 5 or 8 weeks of age, all individuals were anesthetized with diethyl ether (manufactured by Sigma-Aldrich Japan K.K.) and a needle through which heparin sodium (Novo Heparin Injection 1000, manufactured by Mochida Pharmaceutical Co., Ltd.) had been passed was punctured to the heart to aspirate the whole blood, leading to euthanasia, followed by harvest of the organ. With respect to animals of 5 or 8 weeks of age at scheduled necropsy, the left outer lobe of the liver was immersed in a neutral formalin solution (manufactured by Wako Pure Chemical Industries, Ltd.) for fixation at room temperature for 24 hours, subjected to sucrose substitution, embedded in a tray for cryosection (CRYO DISH manufactured by Shoei Works Co., Ltd.) filled with O.C.T. compound (manufactured by Sakura Finetek Japan Co., Ltd.), immediately frozen with liquid nitrogen, and preserved at −80° C. for oil red staining. […]
SMILES,"Fat accumulation area %, Significant difference (Group 3 (low-dose maltitol) at 8 weeks vs group S2 at 5 weeks of age)","Fat accumulation area % (Oil Red staining), mean ± standard deviation (Group 3, low-dose maltitol: HFD32-M (maltitol 6.08%) + pure water from 5 to 8 weeks of age) [%]","Fat accumulation area %, Significant difference (Group 4 (high-dose maltitol) at 8 weeks vs group S2 at 5 weeks of age)","Fat accumulation area % (Oil Red staining), mean ± standard deviation (Group 4, high-dose maltitol: HFD32-M (maltitol 6.08%) + aqueous maltitol solution 1.62% from 5 to 8 weeks of age) [%]","Fat accumulation area %, Significant difference (Group 2 (sucrose) at 8 weeks vs group S2 at 5 weeks of age)","Fat accumulation area % (Oil Red staining), mean ± standard deviation (Group 2, sucrose group: HFD32 (sucrose 6.75%) + pure water, eight weeks of age) [%]"
OC[C@@H](O)[C@@H](O[C@H]1O[C@H](CO)[C@@H](O)[C@H](O)[C@H]1O)[C@H](O)[C@@H](O)CO [maltitol],significantly low and Yes,32.7 ± 7.6,significantly low and Yes,28.6 ± 5.5,–,–
"OC[C@H]1O[C@@](CO)(O[C@H]2O[C@H](CO)[C@@H](O)[C@H](O)[C@H]2O)[C@@H](O)[C@@H]1O [sucrose, reference compound]",–,–,–,–,a significant difference was not observed and No,34.7 ± 8.4
